# In PubChem BioAssay AID248 (DTP/NCI, 2004):
# Values joined by “and” are separate entries in the source; they are usually repeats but may differ in a detail not shown here. Equal entries are not always repeated. Inconclusive results and toxic doses are left out.
# Test system: L1210 leukemia ip in BDF1 mice, survival T/C
# Experiment: NCI In Vivo Anticancer Drug Screen. Data for tumor model L1210 Leukemia (intraperitoneal) in B6D2F1 (BDF1) mice
# Conditions: endpoint: mean survival time, higher = longer survival
# Summary of the method: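 Transplantable tumor model; survival measured in treated vs vehicle control mice. Value = treated/control.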
# [1] = dose: 50.0 mg/kg/injection, schedule: Q01DX001 (ip), vehicle: saline
# [2] = dose: 100.0 mg/kg/injection, schedule: Q04DX003 (ip), vehicle: saline
# [3] = dose: 200.0 mg/kg/injection, schedule: Q04DX003 (ip), vehicle: saline
# [4] = dose: 400.0 mg/kg/injection, schedule: Q04DX003 (ip), vehicle: saline
# [5] = dose: 100.0 mg/kg/injection, schedule: Q01DX001 (ip), vehicle: saline
# [6] = dose: 200.0 mg/kg/injection, schedule: Q01DX001 (ip), vehicle: saline
# [7] = dose: 400.0 mg/kg/injection, schedule: Q01DX001 (ip), vehicle: saline
# [8] = dose: 100.0 mg/kg/injection, schedule: Q04DX003 (ip), vehicle: Klucel (hydroxypropylcellulose) (HPC)
# [9] = dose: 200.0 mg/kg/injection, schedule: Q04DX003 (ip), vehicle: Klucel (hydroxypropylcellulose) (HPC)
# [10] = dose: 100.0 mg/kg/injection, schedule: Q01DX009 (ip), vehicle: Klucel (hydroxypropylcellulose) (HPC)
# [11] = dose: 200.0 mg/kg/injection, schedule: Q01DX009 (ip), vehicle: Klucel (hydroxypropylcellulose) (HPC)
# [12] = dose: 400.0 mg/kg/injection, schedule: Q01DX009 (ip), vehicle: Klucel (hydroxypropylcellulose) (HPC)
# [13] = dose: 50.0 mg/kg/injection, schedule: Q01DX009 (ip), vehicle: Klucel (hydroxypropylcellulose) (HPC)
# [14] = dose: 400.0 mg/kg/injection, schedule: Q04DX003 (ip), vehicle: Klucel (hydroxypropylcellulose) (HPC)
smiles,measurement,setting,value
CC(C)C(=O)CC(=O)C(C)C.CC(C)C(=O)CC(=O)C(C)C.[Cu],T/C,"dose: 12.0 mg/kg/injection, schedule: Q01DX001 (ip), vehicle: saline",93 % of control
same,T/C,"dose: 12.0 mg/kg/injection, schedule: Q04DX003 (ip), vehicle: saline",90 % of control
same,T/C,"dose: 25.0 mg/kg/injection, schedule: Q01DX001 (ip), vehicle: saline",98 % of control
same,T/C,"dose: 25.0 mg/kg/injection, schedule: Q04DX003 (ip), vehicle: saline",98 % of control
same,T/C,[1],98 % of control
same,T/C,"dose: 50.0 mg/kg/injection, schedule: Q04DX003 (ip), vehicle: saline",96 % of control
CCCC/C=C\C=C\CCCC,T/C,[2],95 % of control
same,T/C,[3],103 % of control
same,T/C,[4],97 % of control
CC1B(O)Nc2nc(=S)[nH]c(N)c21 (stereo not given),T/C,"dose: 100.0 mg/kg/injection, schedule: Q04DX003 (ip), vehicle: saline sonified",104 % of control
same,T/C,"dose: 200.0 mg/kg/injection, schedule: Q04DX003 (ip), vehicle: saline sonified",103 % of control
O=c1[nH]c(=O)c2cc3ccccc3nc2[nH]1,T/C,"dose: 50.0 mg/kg/injection, schedule: Q01DX001 (ip), vehicle: carboxymethylcellulose (CMC)",97 % of control
same,T/C,"dose: 100.0 mg/kg/injection, schedule: Q01DX001 (ip), vehicle: carboxymethylcellulose (CMC)",101 % of control
same,T/C,"dose: 200.0 mg/kg/injection, schedule: Q01DX001 (ip), vehicle: carboxymethylcellulose (CMC)",95 % of control
same,T/C,"dose: 400.0 mg/kg/injection, schedule: Q01DX001 (ip), vehicle: carboxymethylcellulose (CMC)",97 % of control
CCOC(=O)C(C#N)c1cccc(C)c1 (stereo not given),T/C,"dose: 100.0 mg/kg/injection, schedule: Q04DX003 (ip), vehicle: saline with Tween-80",95 % of control
same,T/C,"dose: 200.0 mg/kg/injection, schedule: Q04DX003 (ip), vehicle: saline with Tween-80",98 % of control
O=C(C#Cc1ccccc1)N1CCCCC1,T/C,"dose: 200.0 mg/kg/injection, schedule: Q04DX002 (ip), vehicle: saline with Tween-80",98 % of control
same,T/C,"dose: 400.0 mg/kg/injection, schedule: Q04DX002 (ip), vehicle: saline with Tween-80",101 % of control
O=[N+]([O-])c1ccc(O)c(C2OCCCO2)c1,T/C,[5],101 % of control
same,T/C,[6],98 % of control
same,T/C,[7],101 % of control
O=P(Cc1ccccc1)(C(O)c1ccccc1)C(O)c1ccccc1 (stereo not given),T/C,[8],87 % of control
same,T/C,[9],91 % of control
S=C(Nc1ccc(Cl)c(Cl)c1)SCc1ccccc1,T/C,"dose: 75.0 mg/kg/injection, schedule: Q04DX003 (ip), vehicle: saline",101 % of control
same,T/C,"dose: 150.0 mg/kg/injection, schedule: Q04DX003 (ip), vehicle: saline",104 % of control
same,T/C,"dose: 300.0 mg/kg/injection, schedule: Q04DX003 (ip), vehicle: saline",101 % of control
CCOC(=O)c1ccc(NC(=S)N2CCOCC2)cc1,T/C,[10],93 % of control
same,T/C,[11],101 % of control
same,T/C,[12],93 % of control
Cc1ccc(NC(=O)OCCN2CCNC2=S)c([N+](=O)[O-])c1,T/C,[13],95 % of control
same,T/C,[10],87 % of control
same,T/C,[8],93 % of control
same,T/C,[11],91 % of control
same,T/C,[9],91 % of control
same,T/C,[14],96 % of control
COC(=O)c1nc2ccc([N+](=O)[O-])cc2n1O,T/C,[5],101 % of control
same,T/C,[6],93 % of control
same,T/C,[7],96 % of control
Cn1cc([N+](=O)[O-])cnc1=O,T/C,[8],100 % of control
same,T/C,[9],102 % of control
same,T/C,[14],102 % of control
N#CCc1ccccc1C(=O)O,T/C,"dose: 100.0 mg/kg/injection, schedule: Q01DX009 (ip), vehicle: gum acacia",105 % of control
same,T/C,"dose: 100.0 mg/kg/injection, schedule: Q04DX003 (ip), vehicle: gum acacia",96 % of control
same,T/C,"dose: 200.0 mg/kg/injection, schedule: Q01DX009 (ip), vehicle: gum acacia",94 % of control
same,T/C,"dose: 200.0 mg/kg/injection, schedule: Q04DX003 (ip), vehicle: gum acacia",91 % of control
same,T/C,"dose: 400.0 mg/kg/injection, schedule: Q01DX009 (ip), vehicle: gum acacia",88 % of control
same,T/C,"dose: 400.0 mg/kg/injection, schedule: Q04DX003 (ip), vehicle: gum acacia",97 % of control
O=C(c1ccccc1)c1cccc(Cl)c1,T/C,[13],105 % of control
same,T/C,[5],98 % of control
same,T/C,[10],101 % of control
same,T/C,[6],96 % of control
same,T/C,[11],100 % of control
same,T/C,[7],93 % of control
O=C(COc1cc(Cl)c(Cl)cc1Cl)Oc1ccc(Cl)cc1Cl,T/C,"dose: 100.0 mg/kg/injection, schedule: Q04DX002 (ip), vehicle: Klucel (hydroxypropylcellulose) (HPC)",94 % of control
same,T/C,"dose: 200.0 mg/kg/injection, schedule: Q04DX002 (ip), vehicle: Klucel (hydroxypropylcellulose) (HPC)",91 % of control
same,T/C,"dose: 400.0 mg/kg/injection, schedule: Q04DX002 (ip), vehicle: Klucel (hydroxypropylcellulose) (HPC)",98 % of control
O=c1cc(CO)[nH]c(=O)[nH]1,T/C,[1],104 % of control
same,T/C,[13],94 % of control
same,T/C,[5],102 % of control
same,T/C,[10],90 % of control
same,T/C,[6],98 % of control
same,T/C,[11],97 % of control
same,T/C,[7],98 % of control
O=C(COc1ccc(Cl)cc1)Nc1ccccc1C(F)(F)F,T/C,[10],102 % of control and 89 % of control
same,T/C,[8],103 % of control
same,T/C,[11],100 % of control
same,T/C,[9],106 % of control
same,T/C,[12],98 % of control
same,T/C,[14],93 % of control
CC(=O)Oc1c2c(n3c1CCC3)CC(C)(C)CC2=O,T/C,"dose: 75.0 mg/kg/injection, schedule: Q04DX002 (ip), vehicle: Klucel (hydroxypropylcellulose) (HPC)",102 % of control
same,T/C,"dose: 150.0 mg/kg/injection, schedule: Q04DX002 (ip), vehicle: Klucel (hydroxypropylcellulose) (HPC)",97 % of control
same,T/C,"dose: 300.0 mg/kg/injection, schedule: Q04DX002 (ip), vehicle: Klucel (hydroxypropylcellulose) (HPC)",87 % of control
O=C(Nc1ccc2c(O)cc(S(=O)(=O)O)cc2c1)Nc1ccc2c(O)cc(S(=O)(=O)O)cc2c1,T/C,[2],96 % of control
same,T/C,[3],108 % of control
same,T/C,[4],108 % of control
O=C1c2ccccc2-c2cc3ccccc3cc21,T/C,[5],100 % of control
same,T/C,[10],92 % of control
same,T/C,[8],108 % of control
same,T/C,[6],101 % of control
same,T/C,[11],92 % of control
same,T/C,[9],108 % of control
same,T/C,[7],103 % of control
same,T/C,[12],90 % of control
same,T/C,[14],110 % of control
CC1(C)N=C(N)N=C(N)N1c1cccc(Cl)c1Cl,T/C,"dose: 5.0 mg/kg/injection, schedule: Q01DX009 (ip), vehicle: saline",95 % of control
same,T/C,"dose: 10.0 mg/kg/injection, schedule: Q01DX009 (ip), vehicle: saline",104 % of control
same,T/C,"dose: 20.0 mg/kg/injection, schedule: Q01DX009 (ip), vehicle: saline",107 % of control
Nc1ccccc1CSc1nc2nc[nH]c(=O)c2[nH]1,T/C,[8],95 % of control
same,T/C,[9],95 % of control
O=C(Nc1ccc(C2=NCCN2)cc1)c1cccc(C(=O)Nc2ccc(C3=NCCN3)cc2)c1O,T/C,"dose: 2.5 mg/kg/injection, schedule: Q01DX Z (ip), vehicle: carboxymethylcellulose (CMC)",120 % of control
same,T/C,"dose: 5.0 mg/kg/injection, schedule: Q01DX Z (ip), vehicle: carboxymethylcellulose (CMC)",105 % of control
same,T/C,"dose: 7.5 mg/kg/injection, schedule: Q01DX Z (ip), vehicle: carboxymethylcellulose (CMC)",109 % of control
same,T/C,"dose: 10.0 mg/kg/injection, schedule: Q01DX Z (ip), vehicle: carboxymethylcellulose (CMC)",157 % of control
same,T/C,"dose: 15.0 mg/kg/injection, schedule: Q01DX Z (ip), vehicle: carboxymethylcellulose (CMC)",259 % of control
same,T/C,"dose: 20.0 mg/kg/injection, schedule: Q01DX Z (ip), vehicle: carboxymethylcellulose (CMC)",272 % of control
same,T/C,"dose: 30.0 mg/kg/injection, schedule: Q01DX Z (ip), vehicle: carboxymethylcellulose (CMC)",296 % of control
same,T/C,"dose: 31.0 mg/kg/injection, schedule: Q01DX Z (oral), vehicle: carboxymethylcellulose (CMC)",106 % of control
same,T/C,"dose: 62.0 mg/kg/injection, schedule: Q01DX Z (oral), vehicle: carboxymethylcellulose (CMC)",102 % of control
same,T/C,"dose: 125.0 mg/kg/injection, schedule: Q01DX Z (oral), vehicle: carboxymethylcellulose (CMC)",113 % of control
same,T/C,"dose: 250.0 mg/kg/injection, schedule: Q01DX Z (oral), vehicle: carboxymethylcellulose (CMC)",104 % of control
O=C(Nc1cccc(F)c1)Nc1ccccc1Cl,T/C,[10],105 % of control
same,T/C,[11],97 % of control
same,T/C,[12],95 % of control
O=C1NC(=S)S/C1=C\c1c(Cl)cccc1Cl,T/C,"dose: 75.0 mg/kg/injection, schedule: Q01DX001 (ip), vehicle: other",97 % of control
